# Test system: rhythmic bladder contractions induced by substance P
# Assay: Inhibitory effect on the rhythmic bladder contractions induced by substance P in anesthetized rats
# Assay type: in vivo, Sprague-Dawley female rats
# Conditions: 0.25 mg/kg, intravenous, urethane-anesthetized rats, substance P 0.33 μg/kg/min infusion
# Procedure: For the experiments, Sprague-Dawley female rats (9 to 12 weeks old) weighing between 200 to 300 g were used. After urethane anesthetization (subcutaneously administered with a dose of 1.2 g/kg), cannulae were placed in both right and left femoral veins. One intravenous catheter was used for administration of compounds, and the other was for the substance P (0.33 μg/kg/min) infusion. We also cannulated into ureter to pass urine. Polyethylene catheters were inserted into carotid artery for continuous monitoring of arterial blood pressure and heart rate. For continuous infusion, transurethral bladder catheter was inserted into the bladder through the urethra and tied in place by a ligature around the urethral orifice. One end of the catheter was attached to a pressure transducer in order to measure intravesical pressure. The other end of the catheter was used for infusion of saline into the bladder. After stabilization of blood pressure and heart rate and after the bladder was emptied, cystometry was performed by filling the bladder slowly with about 0.6 ml of saline. After about 10 minutes, intravenous infusion of substance P (0.33 μg/kg/min) was started for stabilization of the micturition reflex. Compounds were administered after stable rhythmic bladder contraction was obtained over 15 minutes. […]
compound,measurement,value
NC(=O)c1ccc(-n2cc(C(F)(F)F)nc2-c2ccccc2)cc1 [Example 1 (Compound 4)],100% inhibition time: time during which the frequency of the rhythmic contraction had been completely inhibited,10.08 min
